Results as given in patent US6809091B1, “Substances capable of inducing apoptosis” (Takara Bio Inc., priority 1998, dated 2004).

Assays:
[1] = system: NO production in RAW 264.7 cells; assay: inhibition of NO production, NO2− by Griess reagent; assay type: cell-based
Experimental: (1) RAW 264.7 cells (ATCC TIB 71) were suspended to an extent of 3×10^5 cells/ml in an Eagle's medium modified by Dulbecco (manufactured by BioWhittaker; 12-917F) containing 10% fetal bovine serum (manufactured by Gibco), no Phenol Red and 2 mM of L-glutamine (manufactured by Lifetech Oriental; 25030-149) and each 500 μl of the suspension were added to each well of a 48-well microtiter plate and incubated at 37° C. for 12 hours in the presence of 5% carbon dioxide gas. To the well were added 10 μl of a 50 μg/ml lipopolysaccharide (LPS; manufactured by Sigma, L-2012) or each 10 μl of a 2.5 μg/ml of LPS and a 500 units/ml of interferon γ (manufactured by Genzyme; code MG-IFN), then 10 μl of a 1000, 500 or 250 μM aqueous solution of 2-(trans-3,4-dihydroxy-1-butenyl)-4-(trans-2-formylvinyl)-1,3-dioxolane were added, the mixture was incubated for 18 hours more and the NO2^− concentration generated by oxidation of NO in the medium was measured. Incidentally, a section to which LPS and interferon γ were not added and a section to which 2-(trans-3,4-dihydroxy-1-butenyl)-4-(trans-2-formylvinyl)-1,3-dioxolane was not added were prepared as controls.
After the above incubation, 100 μl of a 4% Griess reagent (manufactured by Sigma; G4410) were added to 100 μl of the medium, the mixture was allowed to stand at room temperature for 15 minutes and the absorbance at 490 nm was measured. From a calibration curve prepared by NaNO2 of known concentrations dissolved in the above medium, the NO2^− concentration in the medium was calculated. All measurements were conducted in three series.

RAW 264.7 cells = assay: cell growth in the NO production test; assay type: cell-based; details: final concentration of 10 μM
HL-60 cells = assay: measurement of apoptosis cells using FACScan; assay type: cell-based, human; details: HL-60, 24 hours and 48 hours
Experimental: (2) HL-60 cells which were incubated on an RPMI 1640 medium containing 10% of fetal bovine serum processed at 56° C. for 30 minutes were suspended in an RPMI 1640 medium to make 2.5×10^5 cells/5 ml. […]

SMILES | induction of NO production by LPS ([1]; 18 hours) | induction of NO production by LPS and interferon γ ([1]; 18 hours) | inhibition at 10 µM ([1]; Mus musculus, RAW264.7, final concentration of 10 μM, read-out: inhibiting activity for NO production) [%] | inhibition of cell growth (RAW 264.7 cells) | final concentration at which apoptosis cells were confirmed (HL-60 cells) [µM]
O=C/C=C/C1COC(/C=C/C(O)CO)O1 (stereo not drawn) [2-(trans-3,4-dihydroxy-1-butenyl)-4-(trans-2-formylvinyl)-1,3-dioxolane] | inhibited | inhibited | ~50 | no inhibition of cell growth was noted at all | –
Nc1nc2c(ncn2C2C=CC(=O)C2)c(=O)[nH]1 (centres unmarked) [4-(9-guaninyl)-2-cyclopenten-1-one] | – | – | – | – | ≥ 20
